Results published in BindingDB's records for doi:10.1016/j.bmc.2007.01.044 (University of San Francisco, 2007).

Target: T1, UDP-3-O-acyl-N-acetylglucosamine deacetylase (Aquifex aeolicus (strain VF5), UniProt O67648)
T1 sequence (O67648 whole entry): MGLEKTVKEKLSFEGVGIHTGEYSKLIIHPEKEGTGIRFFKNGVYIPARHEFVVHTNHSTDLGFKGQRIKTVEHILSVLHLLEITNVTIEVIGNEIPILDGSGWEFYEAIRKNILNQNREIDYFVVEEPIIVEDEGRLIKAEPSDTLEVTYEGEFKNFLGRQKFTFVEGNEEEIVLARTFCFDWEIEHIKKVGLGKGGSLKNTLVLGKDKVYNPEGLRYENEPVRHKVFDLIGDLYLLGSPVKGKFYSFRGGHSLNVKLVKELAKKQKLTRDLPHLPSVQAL
Experiment: Ligand Affinity Measurements
Settings: pH 7; 30 °C
Procedure: Ligand binding to A. aeolicus LpxC was assayed by isothermal titration using isothermal microcalorimeter from Microcal, Inc. (Northampton, MA). The enzyme was stripped of all metal ions, and was reconstituted with Zn2+ (1:1 ratio) by the addition of ZnSO4. The calorimeter cell contained enzyme (40 or 60 uM), and the syringe contained ligand (250 or 400 uM). A series of 30 injections of 8 ul each were performed at 180-s intervals. Titrations of aliphatic compounds into buffer were also performed as control experiments using identical conditions. Data were fit to a single binding site model using Origin v. 2.9.

| Kd | SMILES |
| --- | --- |
| 7 µM | CCCCCCCCCC(=O)O [decanoate] |
| 0.9 µM | CCCCCCCCCCCC(=O)O [dodecanoate] |
| > 100 µM | CCCCCCCC(=O)O [octanoic acid] |
